Results published in US11807835B2, “Detergent compositions containing a stabilized enzyme by phosphonates” (ECOLAB USA INC., priority 2016, dated 2023).

Assays:
Type in all cases: biochemical
lipase = experiment: Lipase activity retention in detergent use solution (4000 ppm, 5 GPG water; p-nitrophenyl valerate, TRIS buffer pH 8.0); conditions: for Relative Lipase Enzyme Activity in a Use Solution: Table 6E, room temperature; for Relative Lipase Enzyme Activity in a Use Solution of the All Ash Detergent Composition: Table 6F, all ash formula, 120º F.; for Relative Lipase Enzyme Activity: base formula
Method in brief: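 Lipase stability was measured in a detergent use solution under conditions mimicking presoak or manual warewash, with stirring in a water bath. Aliquots were taken over time and flash-frozen. Thawed samples were diluted in TRIS buffer at pH 8.0 and assayed with p-nitrophenyl valerate as substrate on a plate reader. Activity is reported as % retained relative to the time=0 sample.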

[1] = system: enzyme (protease, amylase, lipase); experiment: Overall effects of phosphonates on enzyme activity (Table 3); conditions: overall effect of the phosphonate on enzyme activity in the detergent use solution
Method in brief: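 Protease, amylase and lipase activity in detergent use solutions with varied phosphonate levels, 4000 ppm in 5 GPG water at 120° F., sampled up to 4 h and frozen at −80° C. before assay. Activity given as % retention relative to t=0 (100%).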

protease = experiment: Protease activity retention in detergent use solution (4000 ppm, 5 GPG water; peptidyl substrate, glycine buffer pH 9.0); conditions: for Relative Protease Enzyme Activity: use solution at 120° F.
Method in brief: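 Detergent use solutions at 4000 ppm in 5 GPG water were held at 120° F with stirring and sampled up to 4 h, with aliquots flash-frozen. Activity was read on a peptidyl substrate in glycine buffer pH 9.0 by absorbance against a calibration curve. Retention is % activity relative to the t=0 sample.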

[2] = phosphonate 0.3 wt-%, time 0 min
[3] = phosphonate 0.3 wt-%, time 5 min
[4] = phosphonate 0.3 wt-%, time 10 min
[5] = phosphonate 0.3 wt-%, time 20 min
[6] = phosphonate 0.3 wt-%, time 40 min
[7] = phosphonate 0.3 wt-%, time 60 min
[8] = phosphonate 0.3 wt-%, time 90 min
[9] = phosphonate 0.3 wt-%, time 120 min
[10] = phosphonate 0.3 wt-%, time 150 min
[11] = phosphonate 0.3 wt-%, time 180 min
[12] = phosphonate 0.3 wt-%, time 210 min
[13] = phosphonate 0.3 wt-%, time 240 min

O=C(O)CCC(CC(=O)O)(C(=O)O)P(=O)(O)O (centres unmarked) [PBTC, Phosphonebutane tricarboxylic acid]
Relative Lipase Enzyme Activity in a Use Solution (lipase; [2]): 100.00%
Relative Lipase Enzyme Activity in a Use Solution (lipase; [3]): 84.82%
Relative Lipase Enzyme Activity in a Use Solution (lipase; [4]): 101.70%
Relative Lipase Enzyme Activity in a Use Solution (lipase; [5]): 98.72%
Relative Lipase Enzyme Activity in a Use Solution (lipase; [6]): 109.31%
Relative Lipase Enzyme Activity in a Use Solution (lipase; [7]): 103.07%
Relative Lipase Enzyme Activity in a Use Solution (lipase; [8]): 104.82%
Relative Lipase Enzyme Activity in a Use Solution (lipase; [9]): 102.36%
Relative Lipase Enzyme Activity in a Use Solution (lipase; [10]): 105.67%
Relative Lipase Enzyme Activity in a Use Solution (lipase; [11]): 81.94%
Relative Lipase Enzyme Activity in a Use Solution (lipase; [12]): 101.51%
Relative Lipase Enzyme Activity in a Use Solution (lipase; [13]): 110.35%
Relative Lipase Enzyme Activity in a Use Solution of the All Ash Detergent Composition (lipase; [2]): 100.00%
Relative Lipase Enzyme Activity in a Use Solution of the All Ash Detergent Composition (lipase; [3]): 44.27%
Relative Lipase Enzyme Activity in a Use Solution of the All Ash Detergent Composition (lipase; [4]): 26.34%
Relative Lipase Enzyme Activity in a Use Solution of the All Ash Detergent Composition (lipase; [5]): 13.39%
Relative Lipase Enzyme Activity in a Use Solution of the All Ash Detergent Composition (lipase; [6]): 3.62%
Relative Lipase Enzyme Activity in a Use Solution of the All Ash Detergent Composition (lipase; [7]): 1.82%
Relative Lipase Enzyme Activity in a Use Solution of the All Ash Detergent Composition (lipase; [8]): 0.36%
Relative Lipase Enzyme Activity in a Use Solution of the All Ash Detergent Composition (lipase; [9]): 0.52%
Relative Lipase Enzyme Activity in a Use Solution of the All Ash Detergent Composition (lipase; [10]): 2.28%
Relative Lipase Enzyme Activity in a Use Solution of the All Ash Detergent Composition (lipase; [11]): 2.33%
Relative Lipase Enzyme Activity in a Use Solution of the All Ash Detergent Composition (lipase; [12]): 3.25%
Relative Lipase Enzyme Activity in a Use Solution of the All Ash Detergent Composition (lipase; [13]): 3.58%
Relative Lipase Enzyme Activity (lipase; phosphonate 0.3 wt-%, use solution at 120° F., time 0 min): 100.00%
Relative Lipase Enzyme Activity (lipase; phosphonate 0.3 wt-%, use solution at 120° F., time 5 min): 73.63%
Relative Lipase Enzyme Activity (lipase; phosphonate 0.3 wt-%, use solution at 120° F., time 10 min): 66.55%
Relative Lipase Enzyme Activity (lipase; phosphonate 0.3 wt-%, use solution at 120° F., time 20 min): 48.22%
Relative Lipase Enzyme Activity (lipase; phosphonate 0.3 wt-%, use solution at 120° F., time 40 min): 26.23%
Relative Lipase Enzyme Activity (lipase; phosphonate 0.3 wt-%, use solution at 120° F., time 60 min): 15.51%
Relative Lipase Enzyme Activity (lipase; phosphonate 0.3 wt-%, use solution at 120° F., time 90 min): 7.72%
Relative Lipase Enzyme Activity (lipase; phosphonate 0.3 wt-%, use solution at 120° F., time 120 min): 3.90%
Relative Lipase Enzyme Activity (lipase; phosphonate 0.3 wt-%, use solution at 120° F., time 150 min): 2.70%
Relative Lipase Enzyme Activity (lipase; phosphonate 0.3 wt-%, use solution at 120° F., time 180 min): −0.75%
Relative Lipase Enzyme Activity (lipase; phosphonate 0.3 wt-%, use solution at 120° F., time 210 min): −1.86%
Relative Lipase Enzyme Activity (lipase; phosphonate 0.3 wt-%, use solution at 120° F., time 240 min): −2.20%
Relative Lipase Enzyme Activity (lipase; phosphonate 0.6 wt-%, use solution at 120º F., time 0 min): 100.00%
Relative Lipase Enzyme Activity (lipase; phosphonate 0.6 wt-%, use solution at 120º F., time 5 min): 61.52%
Relative Lipase Enzyme Activity (lipase; phosphonate 0.6 wt-%, use solution at 120º F., time 10 min): 62.20%
Relative Lipase Enzyme Activity (lipase; phosphonate 0.6 wt-%, use solution at 120º F., time 20 min): 44.99%
Relative Lipase Enzyme Activity (lipase; phosphonate 0.6 wt-%, use solution at 120º F., time 40 min): 31.89%
Relative Lipase Enzyme Activity (lipase; phosphonate 0.6 wt-%, use solution at 120º F., time 60 min): 23.30%
Relative Lipase Enzyme Activity (lipase; phosphonate 0.6 wt-%, use solution at 120º F., time 90 min): 16.36%
Relative Lipase Enzyme Activity (lipase; phosphonate 0.6 wt-%, use solution at 120º F., time 120 min): 12.11%
Relative Lipase Enzyme Activity (lipase; phosphonate 0.6 wt-%, use solution at 120º F., time 150 min): 9.68%
Relative Lipase Enzyme Activity (lipase; phosphonate 0.6 wt-%, use solution at 120º F., time 180 min): 6.06%
Relative Lipase Enzyme Activity (lipase; phosphonate 0.6 wt-%, use solution at 120º F., time 210 min): 6.80%
Relative Lipase Enzyme Activity (lipase; phosphonate 0.6 wt-%, use solution at 120º F., time 240 min): 5.96%
Relative Lipase Enzyme Activity (lipase; phosphonate at 0.1% elemental phosphorus, at 120º F. or at room temperature (as titled), time 0 min): 100.00%
Relative Lipase Enzyme Activity (lipase; phosphonate at 0.1% elemental phosphorus, at 120º F. or at room temperature (as titled), time 5 min): 87.75%
Relative Lipase Enzyme Activity (lipase; phosphonate at 0.1% elemental phosphorus, at 120º F. or at room temperature (as titled), time 10 min): 73.69%
Relative Lipase Enzyme Activity (lipase; phosphonate at 0.1% elemental phosphorus, at 120º F. or at room temperature (as titled), time 20 min): 56.53%
Relative Lipase Enzyme Activity (lipase; phosphonate at 0.1% elemental phosphorus, at 120º F. or at room temperature (as titled), time 40 min): 25.32%
Relative Lipase Enzyme Activity (lipase; phosphonate at 0.1% elemental phosphorus, at 120º F. or at room temperature (as titled), time 60 min): 19.97%
Relative Lipase Enzyme Activity (lipase; phosphonate at 0.1% elemental phosphorus, at 120º F. or at room temperature (as titled), time 90 min): 15.95%
Relative Lipase Enzyme Activity (lipase; phosphonate at 0.1% elemental phosphorus, at 120º F. or at room temperature (as titled), time 120 min): 12.52%
Relative Lipase Enzyme Activity (lipase; phosphonate at 0.1% elemental phosphorus, at 120º F. or at room temperature (as titled), time 150 min): 11.11%
Relative Lipase Enzyme Activity (lipase; phosphonate at 0.1% elemental phosphorus, at 120º F. or at room temperature (as titled), time 180 min): 10.01%
Relative Lipase Enzyme Activity (lipase; phosphonate at 0.1% elemental phosphorus, at 120º F. or at room temperature (as titled), time 210 min): 9.16%
Relative Lipase Enzyme Activity (lipase; phosphonate at 0.1% elemental phosphorus, at 120º F. or at room temperature (as titled), time 240 min): 9.12%
Stability (effects on enzyme activity) [1]: No
Relative Protease Enzyme Activity (protease; All Ash formula, phosphonate 0.3 wt-%, time 0 min): 100.00%
Relative Protease Enzyme Activity (protease; All Ash formula, phosphonate 0.3 wt-%, time 5 min): 11.99%
Relative Protease Enzyme Activity (protease; All Ash formula, phosphonate 0.3 wt-%, time 10 min): 3.18%
Relative Protease Enzyme Activity (protease; All Ash formula, phosphonate 0.3 wt-%, time 20 min): −0.81%
Relative Protease Enzyme Activity (protease; All Ash formula, phosphonate 0.3 wt-%, time 40 min): −1.79%
Relative Protease Enzyme Activity (protease; All Ash formula, phosphonate 0.3 wt-%, time 60 min): −1.94%
Relative Protease Enzyme Activity (protease; All Ash formula, phosphonate 0.3 wt-%, time 90 min): −1.57%
Relative Protease Enzyme Activity (protease; All Ash formula, phosphonate 0.3 wt-%, time 120 min): −1.11%
Relative Protease Enzyme Activity (protease; All Ash formula, phosphonate 0.3 wt-%, time 150 min): −1.04%
Relative Protease Enzyme Activity (protease; All Ash formula, phosphonate 0.3 wt-%, time 180 min): −2.62%
Relative Protease Enzyme Activity (protease; All Ash formula, phosphonate 0.3 wt-%, time 210 min): −3.07%
Relative Protease Enzyme Activity (protease; All Ash formula, phosphonate 0.3 wt-%, time 240 min): −2.02%
Relative Protease Enzyme Activity (protease; base formula, phosphonate 0.3 wt-%, time 0 min): 100.00%
Relative Protease Enzyme Activity (protease; base formula, phosphonate 0.3 wt-%, time 5 min): 52.04%
Relative Protease Enzyme Activity (protease; base formula, phosphonate 0.3 wt-%, time 10 min): 30.98%
Relative Protease Enzyme Activity (protease; base formula, phosphonate 0.3 wt-%, time 20 min): 14.75%
Relative Protease Enzyme Activity (protease; base formula, phosphonate 0.3 wt-%, time 40 min): 7.33%
Relative Protease Enzyme Activity (protease; base formula, phosphonate 0.3 wt-%, time 60 min): 5.15%
Relative Protease Enzyme Activity (protease; base formula, phosphonate 0.3 wt-%, time 90 min): 4.01%
Relative Protease Enzyme Activity (protease; base formula, phosphonate 0.3 wt-%, time 120 min): 2.91%
Relative Protease Enzyme Activity (protease; base formula, phosphonate 0.3 wt-%, time 150 min): 2.21%
Relative Protease Enzyme Activity (protease; base formula, phosphonate 0.3 wt-%, time 180 min): 1.52%
Relative Protease Enzyme Activity (protease; base formula, phosphonate 0.3 wt-%, time 210 min): 1.01%
Relative Protease Enzyme Activity (protease; base formula, phosphonate 0.3 wt-%, time 240 min): 0.63%
Relative Protease Enzyme Activity (protease; base formula, phosphonate 0.6 wt-%, time 0 min): 100.00%
Relative Protease Enzyme Activity (protease; base formula, phosphonate 0.6 wt-%, time 5 min): 60.27%
Relative Protease Enzyme Activity (protease; base formula, phosphonate 0.6 wt-%, time 10 min): 35.81%
Relative Protease Enzyme Activity (protease; base formula, phosphonate 0.6 wt-%, time 20 min): 16.27%
Relative Protease Enzyme Activity (protease; base formula, phosphonate 0.6 wt-%, time 40 min): 7.44%
Relative Protease Enzyme Activity (protease; base formula, phosphonate 0.6 wt-%, time 60 min): 4.84%
Relative Protease Enzyme Activity (protease; base formula, phosphonate 0.6 wt-%, time 90 min): 2.96%
Relative Protease Enzyme Activity (protease; base formula, phosphonate 0.6 wt-%, time 120 min): 1.76%
Relative Protease Enzyme Activity (protease; base formula, phosphonate 0.6 wt-%, time 150 min): 1.32%
Relative Protease Enzyme Activity (protease; base formula, phosphonate 0.6 wt-%, time 180 min): 0.91%
Relative Protease Enzyme Activity (protease; base formula, phosphonate 0.6 wt-%, time 210 min): 0.70%
Relative Protease Enzyme Activity (protease; base formula, phosphonate 0.6 wt-%, time 240 min): 0.39%
Relative Protease Enzyme Activity (protease; base formula, phosphonate at 0.1% elemental phosphorus, time 0 min): 100.00%
Relative Protease Enzyme Activity (protease; base formula, phosphonate at 0.1% elemental phosphorus, time 5 min): 86.68%
Relative Protease Enzyme Activity (protease; base formula, phosphonate at 0.1% elemental phosphorus, time 10 min): 55.40%
Relative Protease Enzyme Activity (protease; base formula, phosphonate at 0.1% elemental phosphorus, time 20 min): 23.91%
Relative Protease Enzyme Activity (protease; base formula, phosphonate at 0.1% elemental phosphorus, time 40 min): 8.20%
Relative Protease Enzyme Activity (protease; base formula, phosphonate at 0.1% elemental phosphorus, time 60 min): 4.68%
Relative Protease Enzyme Activity (protease; base formula, phosphonate at 0.1% elemental phosphorus, time 90 min): 2.99%
Relative Protease Enzyme Activity (protease; base formula, phosphonate at 0.1% elemental phosphorus, time 120 min): 2.04%
Relative Protease Enzyme Activity (protease; base formula, phosphonate at 0.1% elemental phosphorus, time 150 min): 1.54%
Relative Protease Enzyme Activity (protease; base formula, phosphonate at 0.1% elemental phosphorus, time 180 min): 1.01%
Relative Protease Enzyme Activity (protease; base formula, phosphonate at 0.1% elemental phosphorus, time 210 min): 0.73%
Relative Protease Enzyme Activity (protease; base formula, phosphonate at 0.1% elemental phosphorus, time 240 min): 0.42%
enzyme activity of amine salt of the phosphonate versus non-neutralized phosphonate (protease; phosphonate neutralized with an amine, such as triethanolamine): much improved enzyme activity
